What was measured:
ATF6 [1] = assay: ERSE ATF6-luciferase assay in presence of Tg-induced ER stress (U2-OS ATF6 TRE-luciferase reporter cells); assay type: cell-based, Human; settings: Tg only = 100%; for ATF6 activity @ 1 μM [%] / activity at 1 µM: 1 μM test compound; for ATF6 activity @ 1 μM [%] / ATF6 activity @ 10 μM [%]: 8 hr; for ATF6 activity @ 10 μM [%] / activity at 10 µM: 10 μM test compound; for activity at 1 µM / activity at 10 µM: Homo sapiens, U2OS, 8 h
Method: (§1) To understand how exemplary compounds of the invention modulate the activity of ATF6 in absence or presence of endoplasmic reticulum (ER) stress, a Human bone osteosarcoma (U2-OS)-based TRE-luciferase reporter stable cell line was generated to determine the modulation of transcription of ATF6 target genes.
(§2) U2-OS cells were obtained from the American Type Culture Collection (ATCC HTB-96, ATCC Manassas, Va.) and were cultured with growing medium containing Dulbecco's Modified Eagle's Medium (DMEM) (Cat. No.: SH30023.02, HyClone) supplemented with fetal bovine serum (FBS) 10% (Cat. No.: 16000044, Gibco) and 1% penicillin-streptomycin antibiotic cocktail (Cat. No.: SV30010, Hyclone).
(§3) Cignal Lenti ATF6 luc reporter (Qiagen #CLS-6031L) was used to produce a stable cell line in U2-OS cells (U2-OS ATF6 TRE-luciferase reporter). The lenti ATF6 reporter is a preparation of replication incompetent, VSV-g pseudotyped lentivirus particles expressing the firefly luciferase gene under the control of a minimal (m)CMV promoter and tandem repeats of the ATF6 transcriptional response element (TRE). The number of response elements as well as the intervening sequence between response elements has been experimentally optimized to maximize the signal to noise ratio.
(§4) Exemplary compounds of the invention and reference compounds were prepared from powder as 10 mM stock solutions in dimethyl sulfoxide (DMSO; Cat. No. #D2650, Sigma Aldrich) and stored at −80° C. in presence of N2 neutral atmosphere.
(§5) For the primary screening, 40,000 U2-OS ATF6 TRE-luciferase reporter cells were plated in poly-D-lysine (Cat. No.: P2636, Sigma) pre-coated white 96-well plates (Thermo Scientific Nunc #136101) with 100 μL of growing medium. Cells were incubated in humidified chambers for 24 hr.
For testing exemplary compounds in presence of ER-stress, cells were pre-treated for 30 min with 50 μL growing medium containing either vehicle (DMSO), 1 or 10 μM test compound. After this pre-incubation, 50 μL of a solution containing 0.2 μM of the ER stress-inducer thapsigargin (Tg) was added to the appropriate wells. The Tg solution also contains vehicle or test compounds at 1 or 10 μM as indicated. The final concentration of DMSO in each well was kept at 0.3%. Plates were incubated for 8 hr in humidified chambers.
After the 8 hr incubation, plates were cooled down to room temperature for 10 min prior to the luciferase assays. Luciferase reactions were performed using Luciferase Assay System (Cat. No.: E4550, Promega). Briefly, each well was washed with 100 μl of PBS 1× and, then, 20 μl of lysis reagent was added into each well. Plates were shaken for 10 min and, then, 50 μl of Luciferase Assay Reagent was added to each well. Luminescence was determined by integration of 1 s with a gain of 110 in a Synergy 4 Microplate reader. All measurements were carried out in triplicate.
The average activity determined from the wells containing vehicle only (DMSO, 0% of ATF6 activity) was used as blank and subtracted from the rest of measurements. The average activity determined from the wells containing Tg only was used as 100% of ATF6 activity. The percentage of modulation of exemplary compounds was calculated by normalizing values to potential maximal activation with Tg.
ATF6 activities of exemplary compounds at 1 and 10 μM in presence Tg-induced ER stress tested in the U2-OS ATF6 TRE-luciferase reporter cells were determined and are shown in Table 2.

ATF6 [2] = assay: ERSE ATF6-luciferase assay in absence of ER stress (U2-OS ATF6 TRE-luciferase reporter cells); assay type: cell-based, Human; settings: 8 hr, normalized to maximal activation with Tg; for ATF6 activity @ 1 μM- No Tg [%]: 1 μM test compound; for ATF6 activity @ 10 μM- No Tg [%]: 10 μM test compound
Method: as §1, §2, §3, §4, §5
For testing exemplary compounds in absence of ER-stress, cells were treated for 8 hr with 100 μL growing medium containing either vehicle (DMSO), 1 or 10 μM test compound or 0.1 μM Tg. The final concentration of DMSO in each well was kept at 0.3%. Plates were incubated in humidified chambers.
After 8 hr of incubation, plates were cooled down to room temperature for 10 min prior to luciferase assays. Luciferase reactions were performed as above. Luminescence was read by integration of 1 s with a gain of 110 in a Synergy 4 Microplate reader. All measurements were carried out in triplicate.
The average activity determined from the wells containing vehicle only (DMSO, 0% of ATF6 activity) was used as blank and subtracted from the rest of measurements. The percentage of modulation of exemplary compound was calculated by normalizing values to potential maximal activation with Tg.
ATF6 activities of exemplary compounds at 1 and 10 μM in absence of Tg-induced ER stress in the U2-OS ATF6 TRE-luciferase reporter cells were determined and are shown in Table 3.

Row | Compound | ATF6 activity @ 1 μM [%] (ATF6 [1]) | ATF6 activity @ 10 μM [%] (ATF6 [1]) | ATF6 activity @ 1 μM- No Tg [%] (ATF6 [2]) | ATF6 activity @ 10 μM- No Tg [%] (ATF6 [2]) | activity at 1 µM (ATF6 [1]) [%] | activity at 10 µM (ATF6 [1]) [%]
1 | CC(c1ccc(C(F)(F)F)cc1C(F)(F)F)n1cc(NC(=O)c2cc(-c3cnccn3)no2)cn1 (single isomer, unassigned) [Compound 1-26, N-(1-(1-(2,4-bis(trifluoromethyl)phenyl)ethyl)-1H-pyrazol-4-yl)-3-(pyrazin-2-yl)isoxazole-5-carboxamide] | --- (--- refers to <50% at 1 or 10 μM test compound) | --- (--- refers to <50% at 1 or 10 μM test compound) |  |  |  | 
2 | CC(c1c(F)cccc1Cl)n1cc(NC(=O)c2cc(-c3ccco3)on2)cn1 (single isomer, unassigned) [Compound 1-14, N-(1-(1-(2-chloro-6-fluorophenyl)ethyl)-1H-pyrazol-4-yl)-5-(furan-2-yl)isoxazole-3-carboxamide] | +++ (+++ refers to >150% at 1 or 10 μM test compound) | +++ (+++ refers to >150% at 1 or 10 μM test compound) | + (+ refers to 0% < % activity < 25% at 1 or 10 μM test compound) | + (+ refers to 0% < % activity < 25% at 1 or 10 μM test compound) |  | 
3 | CC(c1c(Cl)cccc1Cl)n1cc(NC(=O)c2cc(-c3ccco3)on2)cn1 (stereo not shown) [Compound 1-1, N-(1-(1-(2,6-dichlorophenyl)ethyl)-1H-pyrazol-4-yl)-5-(furan-2-yl)isoxazole-3-carboxamide] |  |  | + (+ refers to 0% < % activity < 25% at 1 or 10 μM test compound) | + (+ refers to 0% < % activity < 25% at 1 or 10 μM test compound) |  | 
4 | O=C(Nc1cnn(Cc2ccc(C(F)(F)F)cc2C(F)(F)F)c1)c1cc(-c2ccco2)on1 [Ceapin-A7, reference compound] | --- (--- refers to <50% at 1 or 10 μM test compound) | --- (--- refers to <50% at 1 or 10 μM test compound) |  |  |  | 
5 | CC(c1ccc(F)cc1F)n1cc(NC(=O)c2cc(-c3ccco3)on2)cn1 (single isomer, unassigned) [Compound 1-17, N-(1-(1-(2,4-difluorophenyl)ethyl)-1H-pyrazol-4-yl)-5-(furan-2-yl)isoxazole-3-carboxamide] | + (+ refers to 100% < % activity < 125% at 1 or 10 μM) | + (+ refers to 100% < % activity < 125% at 1 or 10 μM) | + (+ refers to 0% < % activity < 25% at 1 or 10 μM test compound) | + (+ refers to 0% < % activity < 25% at 1 or 10 μM test compound) |  | 
6 | CC(c1ccc(C(F)(F)F)cc1C(F)(F)F)n1cc(NC(=O)c2cc(-c3cnccn3)no2)cn1 (single isomer, unassigned) [Compound 1-25, N-(1-(1-(2,4-bis(trifluoromethyl)phenyl)ethyl)-1H-pyrazol-4-yl)-3-(pyrazin-2-yl)isoxazole-5-carboxamide] | - (- refers to 75% < % activity < 100% at 1 or 10 μM) | - (- refers to 75% < % activity < 100% at 1 or 10 μM) |  |  |  | 
7 | CC(c1ccc(C(F)(F)F)cc1C(F)(F)F)n1cc(NC(=O)c2cc(-c3cnccn3)no2)cn1 (stereo not shown) [Compound 1-11, N-(1-(1-(2,4-bis(trifluoromethyl)phenyl)ethyl)-1H-pyrazol-4-yl)-3-(pyrazin-2-yl)isoxazole-5-carboxamide] |  |  |  |  | 50 to 75 | 50 to 75
8 | CC(c1ccc(F)cc1F)n1cc(NC(=O)c2cc(-c3ccco3)on2)cn1 (single isomer, unassigned) [Compound 1-16, N-(1-(1-(2,4-difluorophenyl)ethyl)-1H-pyrazol-4-yl)-5-(furan-2-yl)isoxazole-3-carboxamide] |  | ++ (++ refers to 125% < % activity < 150% at 1 or 10 μM test compound) | + (+ refers to 0% < % activity < 25% at 1 or 10 μM test compound) | + (+ refers to 0% < % activity < 25% at 1 or 10 μM test compound) | 100 to 125 | 
9 | O=C(Nc1cnn(C2CCc3cc(C(F)(F)F)ccc32)c1)c1cc(-c2cnccn2)on1 (stereo not shown) [Compound 1-12, 5-(pyrazin-2-yl)-N-(1-(5-(trifluoromethyl)-2,3-dihydro-1H-inden-1-yl)-1H-pyrazol-4-yl)isoxazole-3-carboxamide] |  |  |  |  | 75 to 100 | 75 to 100
10 | CC(c1c(F)cccc1Cl)n1cc(NC(=O)c2cc(-c3ccco3)on2)cn1 (stereo not shown) [Compound 1-4, N-(1-(1-(2-chloro-6-fluorophenyl)ethyl)-1H-pyrazol-4-yl)-5-(furan-2-yl)isoxazole-3-carboxamide] |  |  |  |  | > 150 | > 150
11 | CC(c1c(F)cccc1Cl)n1cc(NC(=O)c2cc(-c3ccco3)on2)cn1 (single isomer, unassigned) [Compound 1-15, N-(1-(1-(2-chloro-6-fluorophenyl)ethyl)-1H-pyrazol-4-yl)-5-(furan-2-yl)isoxazole-3-carboxamide] | + (+ refers to 100% < % activity < 125% at 1 or 10 μM) | + (+ refers to 100% < % activity < 125% at 1 or 10 μM) | + (+ refers to 0% < % activity < 25% at 1 or 10 μM test compound) | + (+ refers to 0% < % activity < 25% at 1 or 10 μM test compound) |  | 
12 | CC(c1c(Cl)cccc1Cl)n1cc(NC(=O)c2cc(-c3cccs3)on2)cn1 (stereo not shown) [Compound 1-13, N-(1-(1-(2,6-dichlorophenyl)ethyl)-1H-pyrazol-4-yl)-5-(thiophen-2-yl)isoxazole-3-carboxamide] |  |  | + (+ refers to 0% < % activity < 25% at 1 or 10 μM test compound) | + (+ refers to 0% < % activity < 25% at 1 or 10 μM test compound) | 75 to 100 | 100 to 125
13 | CC(c1ccc(F)cc1F)n1cc(NC(=O)c2cc(-c3ccco3)on2)cn1 (stereo not shown) [Compound 1-5, N-(1-(1-(2,4-difluorophenyl)ethyl)-1H-pyrazol-4-yl)-5-(furan-2-yl)isoxazole-3-carboxamide] |  |  |  |  | 100 to 125 | > 150
14 | CC(c1ccc(F)cc1Cl)n1cc(NC(=O)c2cc(-c3ccco3)on2)cn1 (stereo not shown) [Compound 1-6, N-(1-(1-(2-chloro-4-fluorophenyl)ethyl)-1H-pyrazol-4-yl)-5-(furan-2-yl)isoxazole-3-carboxamide] |  |  |  |  | 100 to 125 | 75 to 100
15 | O=C(Nc1cnn(C2CCCc3ccccc32)c1)c1cc(-c2ccco2)on1 (stereo not shown) [Compound 1-3, 5-(furan-2-yl)-N-(1-(1,2,3,4-tetrahydronaphthalen-1-yl)-1H-pyrazol-4-yl)isoxazole-3-carboxamide] |  |  |  |  | 100 to 125 | 125 to 150

— US20220389001A1, “ATF6 MODULATORS AND USES THEREOF” (Praxis Biotech LLC, priority 2019, published 2022)
